Assay results as given in PubChem BioAssay (NCI).
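Where inhibition never reached the appropriate level, the endpoint shown equals the highest concentration tested. Otherwise, values were interpolated linearly from a five-concentration, 48-hour dose response in 96-well plates. The concentration for full growth arrest is given as TGI.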

Assays:
Test in all cases: inhibition of tumour cell growth, NCI panel, 48 h
786-0 renal = test system: 786-0 renal
A549 NSCLC = test system: A549 NSCLC
ACHN renal = test system: ACHN renal
CAKI-1 renal = test system: CAKI-1 renal
CCRF-CEM leukemia = test system: CCRF-CEM leukemia
COLO 205 colon = test system: COLO 205 colon
DU-145 prostate = test system: DU-145 prostate
EKVX NSCLC = test system: EKVX NSCLC
HCC-2998 colon = test system: HCC-2998 colon
HCT-116 colon = test system: HCT-116 colon
HCT-15 colon = test system: HCT-15 colon
HL-60(TB) leukemia = test system: HL-60(TB) leukemia
HOP-62 NSCLC = test system: HOP-62 NSCLC
HS 578T breast = test system: HS 578T breast
HT29 colon = test system: HT29 colon
IGROV1 ovarian = test system: IGROV1 ovarian
K-562 leukemia = test system: K-562 leukemia
KM12 colon = test system: KM12 colon
LOX IMVI melanoma = test system: LOX IMVI melanoma
M14 melanoma = test system: M14 melanoma
MALME-3M melanoma = test system: MALME-3M melanoma
MCF7 breast = test system: MCF7 breast
MDA-MB-231 breast = test system: MDA-MB-231 breast
MDA-MB-435 = test system: MDA-MB-435
MDA-N = test system: MDA-N
MOLT-4 leukemia = test system: MOLT-4 leukemia
NCI-H226 lung = test system: NCI-H226 lung
NCI-H23 lung = test system: NCI-H23 lung
NCI-H460 lung = test system: NCI-H460 lung
NCI-H522 lung = test system: NCI-H522 lung
NCI/ADR-RES ovarian = test system: NCI/ADR-RES ovarian
OVCAR-3 ovarian = test system: OVCAR-3 ovarian
OVCAR-5 ovarian = test system: OVCAR-5 ovarian
OVCAR-8 ovarian = test system: OVCAR-8 ovarian
RPMI-8226 leukemia = test system: RPMI-8226 leukemia
RXF 393 renal = test system: RXF 393 renal
SF-268 CNS = test system: SF-268 CNS
SF-295 CNS = test system: SF-295 CNS
SF-539 CNS = test system: SF-539 CNS
SK-MEL-28 melanoma = test system: SK-MEL-28 melanoma
SK-MEL-5 melanoma = test system: SK-MEL-5 melanoma
SN12C renal = test system: SN12C renal
SNB-19 CNS = test system: SNB-19 CNS
SNB-75 CNS = test system: SNB-75 CNS
SR leukemia = test system: SR leukemia
SW-620 colon = test system: SW-620 colon
TK-10 renal = test system: TK-10 renal
U251 CNS = test system: U251 CNS
UACC-257 melanoma = test system: UACC-257 melanoma
UO-31 renal = test system: UO-31 renal

Measured: TGI

CCOP(=O)(OCC)C(c1ccc(F)cc1)N(C(=O)NC(F)(F)F)c1ccc(OC)cc1 (stereo not given)
> 100 µM: all assays above
